The target of this test is T1, Corticotropin-releasing factor receptor 1 (Homo sapiens, UniProt P34998).
T1 sequence (P34998 whole entry): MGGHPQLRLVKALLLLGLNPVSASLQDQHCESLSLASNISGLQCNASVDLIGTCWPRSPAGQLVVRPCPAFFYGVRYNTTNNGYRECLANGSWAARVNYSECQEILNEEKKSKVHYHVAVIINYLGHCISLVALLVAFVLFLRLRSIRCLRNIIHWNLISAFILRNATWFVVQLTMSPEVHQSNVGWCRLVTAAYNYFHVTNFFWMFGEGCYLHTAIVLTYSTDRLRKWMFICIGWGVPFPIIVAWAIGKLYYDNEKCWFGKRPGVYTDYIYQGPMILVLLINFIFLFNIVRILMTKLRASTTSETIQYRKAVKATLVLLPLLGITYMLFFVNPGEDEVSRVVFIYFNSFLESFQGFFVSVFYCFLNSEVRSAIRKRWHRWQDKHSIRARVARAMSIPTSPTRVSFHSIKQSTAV
In words: Binding Assay: A binding competition experiment with CRF was conducted by the SPA (GE Healthcare) method using a 96-well plate.

The term IC50 denotes the concentration needed to halve the response being measured. Compound `CCCN(c1c(OC)nn2c(-c3c(OC)cc(Cl)cc3OC)csc12)C1CCOCC1` came in with an IC50 of 74 nM.

The record behind these values is ChEMBL document CHEMBL3639059, “Pyrazolothiazole compound” (2013).
